Results on 14 compounds are retold here after PubChem BioAssay (NCI).

Some test systems named below: KM12 colon; SN12C renal; UO-31 renal; EKVX NSCLC; K-562 leukemia; SNB-75 CNS; A549 NSCLC; HCC-2998 colon; NCI-H522 lung; NCI/ADR-RES ovarian.
What all share (assay): growth of human tumour cells (NCI), 48 h

SMILES strings stand for the structures.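 Dose response: 5 concentrations. Exposure: 48 h. Format: 96-well plates. Endpoint: linear interpolation; highest concentration if not reached. GI50: concentration for 50% inhibition of growth. Definition used: TGI = concentration required for complete inhibition of growth.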

With `CSC(C1c2ccccc2N(C)C2=NC(=O)N(C)C(=O)C21Cl)S(=O)(=O)c1ccc(C)cc1` (stereo unspecified), the TGI was more than 100 µM with KM12 colon; more than 100 µM in the assay on SN12C renal; more than 100 µM in the assay with UO-31 renal; more than 100 µM in the assay on EKVX NSCLC; 43.5 µM in the assay with K-562 leukemia; 75.9 µM with SNB-75 CNS. In addition, the TGI with A549 NSCLC is more than 100 µM; in the assay with HCC-2998 colon, more than 100 µM; with NCI-H522 lung it was 30.8 µM.
As to `CC1=CC(=O)CCC2(C)C1CC[C@@H]2OC=O` (stereo partly specified), the TGI in the assay on KM12 colon, in the assay on SN12C renal, with UO-31 renal, with EKVX NSCLC, in the assay on K-562 leukemia and in the assay with SNB-75 CNS was more than 100 µM each time. In addition, the TGI in the assay on A549 NSCLC, in the assay on HCC-2998 colon and in the assay on NCI-H522 lung was more than 100 µM each time.
With `CSc1cnn(CCC#N)c(=O)n1`, the TGI in the assay with KM12 colon, in the assay with SN12C renal, with UO-31 renal, with EKVX NSCLC, in the assay on K-562 leukemia and in the assay on SNB-75 CNS was more than 100 µM each time. The TGI in the assay on A549 NSCLC, in the assay on HCC-2998 colon and in the assay with NCI-H522 lung was more than 100 µM each time.
With `CC(=O)C1CC=C(C)CC1` (stereo unspecified), the TGI in the assay with KM12 colon, in the assay on SN12C renal, with UO-31 renal, in the assay with EKVX NSCLC, with K-562 leukemia and in the assay with SNB-75 CNS was more than 100 µM in each case. Besides, the TGI with A549 NSCLC, with HCC-2998 colon and with NCI-H522 lung was more than 100 µM each time.
Consider `C=C/C=C(\NC(=O)C(Cl)(Cl)Cl)[Si](C)(C)C`, for which the TGI in the assay with KM12 colon, in the assay on SN12C renal, with UO-31 renal, in the assay with EKVX NSCLC, in the assay with K-562 leukemia and with SNB-75 CNS was more than 100 µM in each case. The TGI in the assay on A549 NSCLC, in the assay with HCC-2998 colon and with NCI-H522 lung was more than 100 µM in each case.
On to `NC(N)=NS(=O)(=O)c1ccc(NCc2c3ccccc3nc3ccccc23)cc1`, for which the TGI was 70.1 µM in the assay on KM12 colon; 41.3 µM in the assay on SN12C renal; 87.4 µM in the assay with UO-31 renal; more than 71.7 µM in the assay with EKVX NSCLC; more than 93.6 µM in the assay on K-562 leukemia; 9.02 µM in the assay on SNB-75 CNS. Also, the TGI with A549 NSCLC is more than 100 µM; with HCC-2998 colon, 66.1 µM; in the assay with NCI-H522 lung, 26.9 µM.
Consider `COC1(OC)CC2C=C(S(=O)(=O)c3ccccc3)C1N(Cc1ccccc1)C2=O` (stereo unspecified), for which the TGI in the assay on KM12 colon was 92.3 µM; with SN12C renal, 68.2 µM; with UO-31 renal, more than 100 µM; in the assay on EKVX NSCLC, more than 100 µM; in the assay with K-562 leukemia, more than 100 µM; in the assay on SNB-75 CNS, more than 100 µM. Also, the TGI in the assay on A549 NSCLC was more than 100 µM; with HCC-2998 colon, more than 100 µM; in the assay on NCI-H522 lung, 33.9 µM.
In the case of `COc1cc2c(cc1OC)-c1cc3cc(OC)c(OC)cc3n1CC2`, the TGI in the assay on KM12 colon was more than 100 µM; in the assay with SN12C renal it was more than 100 µM; with UO-31 renal, more than 100 µM; in the assay on EKVX NSCLC it was more than 100 µM; in the assay with K-562 leukemia, more than 100 µM; in the assay on SNB-75 CNS, 50.5 µM. The TGI in the assay with A549 NSCLC, in the assay with HCC-2998 colon and with NCI-H522 lung was more than 100 µM throughout.
Take `COc1ccc(/C(=N/NC(=O)NN)C(c2ccc(OC)cc2)C2(O)CNc3c(Cl)cc(Cl)cc32)cc1` (stereo unspecified): the TGI with KM12 colon, in the assay with SN12C renal, in the assay on UO-31 renal, with EKVX NSCLC, in the assay with K-562 leukemia and in the assay with SNB-75 CNS was more than 100 µM throughout. Also, the TGI in the assay on A549 NSCLC, in the assay with HCC-2998 colon and in the assay with NCI-H522 lung was more than 100 µM in each case.
`CCn1cc(/C=C/C(C)c2cn(CC)c(=O)[nH]c2=O)c(=O)[nH]c1=O` (stereo unspecified): the TGI in the assay with KM12 colon, in the assay on SN12C renal, in the assay on UO-31 renal, in the assay on EKVX NSCLC, in the assay with K-562 leukemia and in the assay with SNB-75 CNS was more than 100 µM in each case. The TGI with A549 NSCLC, with HCC-2998 colon and with NCI-H522 lung was more than 100 µM in each case.
For the compound `C1CCN(CCC2CCCCN2)CC1` (stereo unspecified), the TGI in the assay on KM12 colon, with SN12C renal, in the assay on NCI/ADR-RES ovarian, with EKVX NSCLC, with K-562 leukemia and in the assay with SNB-75 CNS was more than 100 µM in each case. For the same compound, the TGI in the assay on A549 NSCLC and in the assay with NCI-H522 lung was more than 100 µM each time.
In the case of `CCCCCCCC/C=C/CCCCCCCCC1=NCCN1CCO`, the GI50 was 2.71 µM in the assay with KM12 colon; 4.19 µM in the assay on SN12C renal; 8.44 µM in the assay on NCI/ADR-RES ovarian; 1.76 µM in the assay with UO-31 renal; 2.8 µM in the assay with SNB-75 CNS; 2.67 µM with A549 NSCLC. Further, the GI50 in the assay with HCC-2998 colon was 14.2 µM; in the assay on NCI-H522 lung, 6.34 µM. In addition, the TGI with KM12 colon was 7.64 µM; with SN12C renal, 15.9 µM; in the assay with NCI/ADR-RES ovarian it was 38.4 µM; in the assay on UO-31 renal, 3.75 µM; in the assay on SNB-75 CNS it was 15.3 µM; in the assay with A549 NSCLC, 7.41 µM. For the same compound, the TGI in the assay on HCC-2998 colon was determined as 34.2 µM; in the assay on NCI-H522 lung, 25.9 µM.
`CCCN(CCCC(NC(C)=O)C(=O)NCc1ccccc1)C(=O)NC` (stereo unspecified): the TGI in the assay on KM12 colon was more than 100 µM; in the assay on SN12C renal, more than 100 µM; in the assay with UO-31 renal, more than 100 µM; in the assay with EKVX NSCLC, more than 100 µM; in the assay with K-562 leukemia, more than 100 µM; in the assay on SNB-75 CNS, 75.3 µM. Besides, the TGI in the assay with A549 NSCLC, in the assay on HCC-2998 colon and with NCI-H522 lung was more than 100 µM each time.
With `CCSCC(N)C(=O)O` (stereo unspecified), the TGI with KM12 colon, in the assay with SN12C renal, in the assay on NCI/ADR-RES ovarian, with UO-31 renal, in the assay on EKVX NSCLC and in the assay on SNB-75 CNS was more than 100 µM in each case. Moreover, the TGI in the assay with A549 NSCLC and in the assay on NCI-H522 lung was more than 100 µM each time.
